Results reported in patent publication US20210309677A1, “NOVEL AMINOPHOSPHINIC DERIVATIVES AS AMINOPEPTIDASE A INHIBITORS” (QUANTUM GENOMICS, priority 2018, published 2021).

The compounds below were run against T1, recombinant mouse APA (Mus musculus, UniProt P16406) (assay: Measurement of APA activity in vitro (hydrolysis of GluβNa, colorimetric)). Details: 200 μM Glu-βNa, pH 7.4, 37° C., 4 mM CaCl2, read-out: In vitro inhibition of aminopeptidase A, IC50 classification.
T1 sequence (P16406 1-945): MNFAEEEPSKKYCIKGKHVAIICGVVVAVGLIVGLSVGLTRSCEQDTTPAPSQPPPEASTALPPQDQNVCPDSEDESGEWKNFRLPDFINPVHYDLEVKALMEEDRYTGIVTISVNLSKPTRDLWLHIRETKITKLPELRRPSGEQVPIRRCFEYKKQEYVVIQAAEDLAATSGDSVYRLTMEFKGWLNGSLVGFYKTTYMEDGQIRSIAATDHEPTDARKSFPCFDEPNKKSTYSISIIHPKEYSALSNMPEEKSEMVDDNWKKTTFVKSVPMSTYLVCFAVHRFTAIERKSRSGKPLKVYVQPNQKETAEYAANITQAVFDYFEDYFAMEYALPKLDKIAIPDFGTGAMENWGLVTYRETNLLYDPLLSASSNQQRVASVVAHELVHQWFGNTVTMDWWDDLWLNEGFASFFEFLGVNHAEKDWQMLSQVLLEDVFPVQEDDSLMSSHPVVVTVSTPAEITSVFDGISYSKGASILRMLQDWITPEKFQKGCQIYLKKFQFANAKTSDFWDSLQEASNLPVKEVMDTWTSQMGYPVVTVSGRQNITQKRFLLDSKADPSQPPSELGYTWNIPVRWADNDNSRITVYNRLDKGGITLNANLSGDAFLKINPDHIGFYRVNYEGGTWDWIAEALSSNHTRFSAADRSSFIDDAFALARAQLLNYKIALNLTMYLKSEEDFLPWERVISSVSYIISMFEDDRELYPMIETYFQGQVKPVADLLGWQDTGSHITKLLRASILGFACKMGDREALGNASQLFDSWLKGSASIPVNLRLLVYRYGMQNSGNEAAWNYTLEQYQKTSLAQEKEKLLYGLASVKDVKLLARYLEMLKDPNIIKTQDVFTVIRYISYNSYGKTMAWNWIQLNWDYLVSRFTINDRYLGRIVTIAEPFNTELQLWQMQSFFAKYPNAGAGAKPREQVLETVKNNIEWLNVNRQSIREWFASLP
Type: biochemical
From the text: Measurement of APA activity in vitro is based on the protocol of Goldbarg adjusted to the scale of assaying on microplates (Pro Bind™ 3915) (Chauvel et al., 1994). In vitro, in the presence of calcium ions, APA hydrolyses a synthetic substrate α-L-glutamyl-β-naphthylamide (GluβNa) to glutamate and β-naphthylamine ((βNa). A diazotation reaction in acidic medium makes it possible to reveal the β-naphthylamine by formation of a violet-coloured complex: spectrophotometric measurement then makes it possible to know the amount of complex formed and, by reference to a standard curve produced with increasing concentrations of β-naphthylamine, to deduce the enzymatic activity of the sample.
The Glu-βNa substrate (Bachem) and the β-naphthylamine (Sigma) are dissolved in 50% DMSO (dimethyl sulphoxide) and 0.1 N HCl respectively, and conserved at −20° C. at a concentration of 10^−2 M. The diazotation reaction is carried out in the presence of sodium nitrite (87 mM), ammonium sulfamate (130 mM) and N-(1-naphthyl)-ethylenediamine dihydrochloride (23 mM in 95% ethanol).
The reaction takes place at pH 7.4 in 50 mM tris-HCl buffer, in the presence of calcium (4 mM CaCl2); recombinant mouse APA is incubated at 37° C. in the presence of the substrate (200 μM Glu-βNa) and in the presence or absence of various concentrations of the inhibitor to be tested, in a final volume of 100 μL. The reaction is stopped by adding 10 μL, of 3N HCl. A standard curve of β-naphthylamine was prepared in parallel by diazotizing increasing concentrations (up to 0.2 mM) of 2-naphthylamine in 0.1 N HCl.
The following are added to each well: 25 μL of sodium nitrite (NaNO2) (mix, wait 5 minutes at room temperature), 50 μI, of ammonium sulfamate (mix, wait 5 minutes at room temperature), then add 25 μL of N-(1-naphthyl) ethylenediamine dihydrochloride (mix, wait for stabilization of the violet colour for approximately 30 minutes at 37° C.). The absorbance is then measured at 540 nm.
The compound EC33 ((S)-3 amino-4-mercapto-butylsulfonic acid) described in application WO 99/36066 was used as a reference compound.

First: N[C@H](CS)CCS(=O)(=O)O [EC33, (S)-3 amino-4-mercapto-butylsulfonic acid, reference compound]
Second: CC(C)CCP(=O)(O)C(N)CCC(=O)O (centres unmarked) [Example 1, 4-amino-4-[hydroxy(3-methylbutyl)phosphoryl]butanoic acid]
The IC50 of the first is higher: 300 to 10000 nM for the first, 30 to 300 nM for the second.

`CC(C)CCCP(=O)(O)C(N)CCC(=O)O` (centres unmarked) [Example 2, 4-amino-4-[hydroxy(4-methylpentyl)phosphoryl]butanoic acid] and `CC(C)CCCCP(=O)(O)C(N)CCC(=O)O` (centres unmarked) [Example 3, 4-amino-4-[hydroxy(5-methylhexyl)phosphoryl]butanoic acid] fall in the same range of IC50: 30 to 300 nM for the first, 30 to 300 nM for the second.

`CCCCCP(=O)(O)C(N)CCC(=O)O` (centres unmarked) [Example 4, 4-amino-4-[hydroxy(pentyl)phosphoryl]butanoic acid] and `CCCCCCP(=O)(O)C(N)CCC(=O)O` (centres unmarked) [Example 5, 4-amino-4-[hexyl(hydroxy)phosphoryl]butanoic acid] fall in the same range of IC50: 30 to 300 nM for the first, 30 to 300 nM for the second.

`NC(CCC(=O)O)P(=O)(O)CCCC(F)(F)F` (centres unmarked) [Example 6, 4-amino-4-[hydroxy(4,4,4-trifluorobutyl)phosphoryl]butanoic acid] and `NC(CCC(=O)O)P(=O)(O)CCC1CCCCC1` (centres unmarked) [Example 7, 4-amino-4-[(2-cyclohexylethyl)(hydroxy)phosphoryl]butanoic acid] fall in the same range of IC50: 30 to 300 nM for the first, 30 to 300 nM for the second.

`NC(CCC(=O)O)P(=O)(O)CC1CCC1` (centres unmarked) [Example 8, 4-amino-4-[(cyclobutylmethyl)(hydroxy)phosphoryl]butanoic acid] and `NC(CCC(=O)O)P(=O)(O)CC1CCCC1` (centres unmarked) [Example 9, 4-amino-4-[(cyclopentylmethyl)(hydroxy)phosphoryl]butanoic acid] cannot be ordered by IC50: less than 30 nM for the first, less than 30 nM for the second.

`NC(CCC(=O)O)P(=O)(O)CC1CCCCC1` (centres unmarked) [Example 10, 4-amino-4-[(cyclohexylmethyl)(hydroxy)phosphoryl]butanoic acid] gave an IC50 of less than 30 nM.
